The test system of data set [1] is Lipid peroxidation (MDA) levels. Nature of the data set: Lipid peroxidation (MDA) levels in tissues. The class given is in vivo, Wistar rats. To be noted: oral 60 mg/kg, 14 days. Here is the method:
(§1) The four groups received oral dose day by day for 14 days as follows: The first group: the negative control group, received 1:9; DMSO: Saline. The second group: the free TQ group, received a 60 mg/kg free TQ (3). The third group: The MSNs group received a 60 mg/kg MSNs dose. The fourth group: the LB-MSNs group, received a dose of 60 mg/kg MSNs loaded with TQ and coated with lipids. On day 14, rats were decapitated, and rat brains, liver, and kidneys were dissected for histopathological examination and oxidative stress measurements. The duration time of our experiment and the TQ doses were determined following Sheikhbahaei et al. (2016). 's work.
(§2) On the 14th day of the experiment, all the experimental groups were sacrificed by decapitation. The brains of each animal were taken away after they were removed and put in an ice-cold Petri dish. The brain was sectioned into different regions (hippocampus, cortex, hypothalamus, thalamus, medulla, midbrain, cerebellum, and striatum). Each brain region was weighed and frozen until used in further measurements. Heidolph DIAX 900 was used to homogenize the brain sections weighed in 4 ml of ice-cold PBS (50 mM, pH 7.4). Then, for 15 minutes, the homogenates were separated using a high-speed cooling centrifuge. The centrifuge was set to 8000 RPM and 4°C (VS-18000 M small size, high speed, refrigerated centrifuge, Korea). The pure supernatant was collected and stored at -20°C for further analysis.
MDA was determined as a marker of lipid peroxidation using a method developed by Begona Ruiz-Larrea et al., which entailed detecting the thiobarbituric acid-reactive molecules. […] A spectrophotometer was used to measure the absorbance of the generated compound at 532 nm (Jenway UV-6420; Barloworld Scientific, Essex, UK).
(§3) We used The Statistical Package for Social Sciences (SPSS) software (version 19) to analyze the data. The mean and standard error of the results were calculated. […] The percentage difference, which reflects the percent change in value compared to the control, was also assessed. %Difference%D=treatedvalue-controlvalue/controlvalue×100%

The test system of data set [2] is Reduced glutathione (GSH) levels. Nature of the data set: Reduced glutathione (GSH) levels in tissues (Ellman's method). The class given is in vivo, Wistar rats. Conditions: oral 60 mg/kg, 14 days. The procedure: as §1
(§4) On the 14th day of the experiment, all the experimental groups were sacrificed by decapitation. […]
According to Ellman's method, the determination of Reduced Glutathione concentration (GSH) required using Biodiagnostic kit No. GR 25 11, Egypt. Ellman's method measured reduced glutathione levels, as the sulfhydryl group of […] lowers Ellman's reagent and produces 2-Nitro-smercaptobenzoic acid. The yellow-colored nitro-mercaptobenzoic acid was detected at 412 nm using a spectrophotometer (Jenway UV-6420; Barloworld Scientific, Essex, UK).
We used The Statistical Package for Social Sciences (SPSS) software (version 19) to analyze the data. The mean and standard error of the results were calculated. […]

The next data set deals with Wistar rats. Nature of the data set: Histopathological examination of the kidney, liver, and different brain areas (H & E). It counts as in vivo. To be noted: H & E x400, oral 60 mg/kg, 14 days. Here is the method:
as §1
Each group's brain, liver, and kidney were fixed in a formalin buffered solution (10%) for twenty-four hours. Fixed specimens were rinsed with tap water before dehydrating with methyl, ethyl, and absolute dilutions. Specimens were cleaned in xylene and embedded in paraffin wax for 24 hours in a 56°C hot air oven. Microtome blocks of Paraffin bees wax tissue were sectioned at 8 microns on a slide, collected on glass slides, and removed paraffin stained with hematoxylin and eosin (H & E) stains. A light microscope was used to examine the slides (Zeiss, Germany).

The test system of another data set is Catalase activity. Nature of the data set: Catalase activity in tissues (Aebi's protocol). The class given is in vivo, Wistar rats. Conditions: oral 60 mg/kg, 14 days. Here is the method: as §1, §4
The catalase activity was determined according to Aebi’s protocol (spectrophotometry) using Biodiagnostic Kit No. CA 25 1, Egypt. […] The chromophore's absorbance at 510 nm is measured using a spectrophotometer (Jenway UV-6420; Barloworld Scientific, Essex, UK).
as §3

A further data set has as its system Nitric oxide (NO) levels. Nature of the data set: Nitric oxide (NO) levels in tissues (Griess reaction). To be noted: all the tested organs; oral 60 mg/kg, 14 days. The class given is in vivo, Wistar rats. The procedure:
as §1, §4
The nitric oxide assay was performed according to the Griess reaction method using biodiagnostic kit No. 25 33, Egypt. […] Absorption was measured using a spectrophotometer at […] (Jenway UV-6420; Barloworld Scientific, Essex, UK). NO levels were quantified as nitrite using the Griess reagent, according to Moshage et al..
as §3

Data set [3] in a line: Distribution of TQ in brain areas, liver and kidney (HPLC). It counts as in vivo, Wistar rats. Conditions: male, Wistar, rat, oral, 60 mg/kg TQ, read-out: TQ distribution, Mean ± SEM. The procedure: Twenty-eight male Wistar rats with an average weight of 110±10 gm were allocated into four random groups (seven rats/group). Animals were kept in fixed housing circumstances (12 h light/dark cycles) and temperature (25 °C) for three days to acclimatize. The Institutional Animal Ethics Committee approved the protocol for the in vivo study (CU-I-F-28-21).
as §1, §2
TQ was chromatographically identified at room temperature 25 °C. The mobile phase was 50: 30: **20 v/v/v methanol, acetonitrile, and potassium dihydrogen phosphate buffer (20 mM, pH 4.5), isocratically injected at a flow rate of 1 ml/min using the HPLC apparatus's C18 column (25 cm4.6 mm) (YL 9100 HPLC, USA).

For a further data set, the system named is NO and MDA metabolites. Also on record: method as in PMID 22309035. Conditions: rat brain; 2, 5, or 10 mg/kg doses; cited from earlier work.

Where two headings read alike, the source gives them in different places.

As for `CC1=CC(=O)C(C(C)C)=CC1=O` [TQ, 2-isopropyl-5-methyl-1,4-benzoquinone], in data set [1] (all tested areas except the medulla), the “MDA concentration change compared with control” value is given as “nonsignificant changes”. Also, in data set [1] (liver), the “MDA level, significant increase compared with control” value was determined as 67.01%. Also, the “MDA level, significant decrease compared with control” value in data set [1] (medulla) is 60.95%. Besides, the “GSH level change compared with negative control group” value in data set [2] (all investigated areas except the cerebellum) is reported as “no significant changes”. Moreover, the “GSH level, significant increase compared with control” value in data set [2] (cerebellum) is listed as 181.98%. The renal histopathological alterations entry with Wistar rats was “mild histopathological alterations”. In addition, in the data set on Catalase activity (all investigated areas except cerebellum, brain, kidney, hippocampus), the “catalase activity change compared with negative control group” value was “no significant differences”. For the same molecule, the “catalase activity, significant difference compared with negative control (direction not given)” value in the data set with Catalase activity (cerebellum) is 55.4%. Besides, in the data set on Nitric oxide (NO) levels, the “NO level change compared with negative control group” value was “nonsignificant changes”. Further, the concentration at 14 days in data set [3] (Cerebellum) was 48 ± 18 ng/g; in data set [3] (Cortex), 25 ± 4 ng/g; in data set [3] (Hippocampus) it was 2 ± 0.3 ng/g; in data set [3] (Hypothalamus), 10 ± 0.3 ng/g; in data set [3] (Kidney), 112 ± 19 ng/g; in data set [3] (Liver) it was 201 ± 24 ng/g. In addition, the concentration at 14 days is 6 ± 1 ng/g in data set [3] (Medulla), 7 ± 1 ng/g in data set [3] (Midbrain), 13 ± 1 ng/g in data set [3] (Striatum) and 4 ± 1 ng/g in data set [3] (Thalamus). Moreover, the “NO and MDA metabolites in the hippocampus” value in the data set on NO and MDA metabolites is listed as “decreased”.
